Tests used:
[1] = tested on: bone marrow cells; assay: Spontaneous proliferation of bone marrow cells (3H-thymidine uptake) from cyclophosphamide-treated mice; assay type: in vivo, ICR mice
Procedure: 300 mg/kg dose of cyclophosphamide (CY) was intraveously injected into 7-week-old ICR mice. […] The number of cells per femur for each mouse was counted, and the bone marrow cells for each test group were plated on a 96-well microplate (2 X 100,000 cells/well), and at the same time 0.5µ Ci/well of ^3H-thymidine was added. The cells were cultured for 5 hours, and radioactivity (C.P.M) was measured with a liquid scintillation counter. An experiment was carried out using 3 animals per group, and the results are shown by mean value ± standard error. Spontaneous proliferation ability of bone marrow cells for each group was shown in the parentheses by percentage by taking spontaneous proliferation of bone marrow cells at 0 day (untreated) as 100%.

[2] = tested on: IL-3; assay: IL-3 productivity of spleen cells of cyclophosphamide-treated mice (FDCP-2 cell MTT assay); assay type: in vivo, ICR mice; settings: for productivity of IL-3 by spleen cells: CY 300 mg/kg i.v. alone; for IL-3 productivity of the spleen cells: CY 300 mg/kg i.v. + L-anserine 100 mg/kg every day
Procedure: 300 mg/kg dose of cyclophosphamide (CY) was intraveously injected to 7-week old ICR mice. To L-anserine (Ans)-administration group, 100 mg/kg dose of L-anserine was administrated every day from the day on which cyclophosphamide was administrated. On the third, fifth and seventh days from the administration of cyclophosphamide, spleen cells of the mouse were taken and the cells (5 × 10^6 cells/ml) were cultured in a 10% FCS-RPMI 1640 medium supplemented with 2 µg/ml of concanavalin A for 24 hours, and the supernatant was assayed for IL-3. The IL-3 activity was measured by plating 1×10^4 cells/well of IL-3 dependent FDCP-2 cells on a 96 well microtiter plate, adding twofold stepwise-diluted supernatant to the wells, culturing the cells for 24 hours, and measuring a ratio of surviving FDCP-2 cells by MTT assay using 3-(4,5-dimethylthyazol-2yl)-2,5-diphenyl tetrazolium bromide. Using a culture supernatant of WEHI cells as IL-3 standard, a concentration of IL-3 which provides 50% growth per the maximum growth of the cultured FDCP-2 cells was defined as 1 unit, and I L-3 activity of a sample was obtained by calculating a sample dilution ratio which provides 50% of the maximum absorption in the standard curve.

[3] = tested on: leukocytes; assay: Leukocyte number recovery in mice given cyclophosphamide; assay type: in vivo, C57BL mice; settings: for The number of leukocytes: Ans 100 mg/kg s.c. every day where given, mean ± standard error, 5 animals
Text: On the seventh, eighth and ninth days from the administration of cyclophosphamide blood samples were taken from the orbital venosus plexus of the mouse, and the number of leukocytes was counted by an automatic hemacytometer.

[4] = tested on: erythrocytes; assay: Prevention of anemia in mice given cyclophosphamide; assay type: in vivo, C57BL-mice
Procedure: 7-week old C57BL-mice were intravenously injected with cyclophosphamide (CY) in a dose of 300 mg/kg. L-anserine (Ans) was subcutaneously administered every day in a dose of 100 mg/kg from the day on which cyclophosphamide was administered. After 1, 3, 5, 7 and 9 days from the administration of cyclophosphamide (for L-anserine, after 3, 5 and 7 days), blood samples were taken from the orbital venosus plexus of the mouse, and the number of erythrocyte and the amount of hemoglobin were measured by an automatic hemacytometer. The experiment was carried out using three mice per experimental group, and the results are shown as mean ± standard error.

[5] = tested on: colony stimulating activity (CSA) in serum; assay: Colony stimulating activity (CSA) in serum of cyclophosphamide-treated mice
Procedure: 300 mg/kg dose of cyclophosphamide (CY) was intravenously injected into 7-week-old ICR mice. 100 mg/kg dose of L-anserine (Ans) was subcutaneously injected every day from the day on which cyclophosphamide was administered. On the first, third, fifth, seventh and ninth days from the administration of cyclophosphamide (on the third, fifth and seventh day for the group to which Ans was administrated), the mouse serum was taken, and colony stimulating activity (CSA) was measured. For a CSA assay in serum, 50 µl of CSA assay serum was added to a medium comprising 50 µl of bone marrow cells (1.5 × 10^6 cells/ml) aseptically recovered from the femur of a normal female ICR mouse, 200 µl of FCS, 450 µl of 0.6% agar and 300 µl of × 2 DMEM, and the mixture was stirred and cultured in 5% CO2 at 37°C for 10 days, a cell mass comprising at least 30 cells was counted as one colony, and the number of the colonies was defined as the CSA of a serum.

[6] = tested on: mouse bone marrow cells; assay: Colony Forming Unit in Spleen (CFU-s), transplant method, in X-ray irradiated mice; assay type: in vivo, C57BL/6 mouse; settings: X-ray 6 Gy, 5 x 10^4 bone marrow cells transplanted, spleen colonies after eight days; L-anserine 100 mg/kg s.c. every day to the seventh day; versus X-ray control group
Procedure: Colony Forming Unit in Spleen (CFU-s) of mouse bone marrow cells in mouse radiated with X-ray was carried out using a transplant method. The X-ray radiation was carried out using an MBR-1520 type R X-ray radiation apparatus manufactured by Hitachi Medico. The mice were irradiated with X-rays such that the radiation dose rate was 1.16 Gy/min (150 kV, 20 mA, Filter: 0.5 mm Al + 0.1 mm Cu), and the radiation dose was 6 Gy. 5 × 10^4 bone marrow cells of normal C57BL/6 mouse were injected into a tail vein of a radiated recipient female C57BL/6 mouse. Eight days later, the spleen of the mouse was removed and fixed with Bouin solution, and the number of cell colonies formed on the spleen surface were counted. To the L-anserine-administration group 100 mg/kg dose of L-anserine was subcutaneously administrated every day from the day on which X-ray was radiated to the seventh day, and to the chicken extract-administration group 0.5 ml/head dose of chicken extract containing 2mg/ml of L-anserine was orally administrated every day from the day on which X-ray was radiated to the seventh day.

[7] = tested on: erythrocytes; assay: Treatment of anemia in mice irradiated with X-ray; assay type: in vivo, C57BL/mice; settings: 4.0 Gy X-ray; L-anserine 100 mg/kg s.c. for 10 days; 14th day from irradiation
Procedure: 7-week old C57BL/mice were systemically irradiated with 4.0 Gy of X-ray. L-anserine was subcutaneously injected continuously for 10 days from the day on which X-ray was irradiated in a dose of 100 mg/kg. On 14th day from the irradiation of X-ray, blood samples were taken from the orbital venosus plexus of mice, and the number of erythrocytes and amount of hemoglobin were measured by an automatic hemacytometer. The experiment used three mice for one experimental group, and the results are shown as mean ± standard error.

[8] = CY 300 mg/kg i.v. alone, third to seventh days
[9] = CY 300 mg/kg i.v. + L-anserine 100 mg/kg s.c. every day, third day to seventh day

O=P1(N(CCCl)CCCl)NCCCO1 (centres unmarked) [CY, cyclophosphamide]
spontaneous proliferation ability of bone marrow cells ([1]; CY 300 mg/kg i.v. alone, fifth day): once recovered to the normal level | spontaneous proliferation ability of bone marrow cells ([1]; CY 300 mg/kg i.v. alone, first to third days): remarkably inhibited | spontaneous proliferation ability of bone marrow cells ([1]; CY 300 mg/kg i.v. alone, seventh to ninth days): again decreased | productivity of IL-3 by spleen cells ([2]; first to third days): inhibited | productivity of IL-3 by spleen cells ([2]; on and after the fifth day, versus normal conditions): increase of IL-3 productivity by two times | The number of leukocytes ([3]; 7 days after CY 300 mg/kg i.v.): 32.8 ± 8.0 X 100/µl | The number of leukocytes ([3]; 8 days after CY 300 mg/kg i.v.): 67.4 ± 8.1 X 100/µl | The number of leukocytes ([3]; 9 days after CY 300 mg/kg i.v.): 66.6 ± 7.2 X 100/µl | number of leukocytes ([3]; CY 300 mg/kg i.v. alone, time course after administration): decreased immediately after the administration, and gradually recovered before the seventh to ninth day | amount of hemoglobin [4, 8]: decrease, resulting in anemia | number of erythrocytes [4, 8]: decrease, resulting in anemia | colony stimulating activity (CSA) in serum ([5]; CY 300 mg/kg i.v. alone, after the third day): the inhibition was compensated by stimulation of CSA | colony stimulating activity (CSA) in serum ([5]; CY 300 mg/kg i.v. alone, first day): inhibited

Cn1cncc1C[C@H](NC(=O)CCN)C(=O)O [L-anserine, β-alanyl-π-methyl-L-histidine]
spontaneous proliferation ability of bone marrow cells ([1]; CY 300 mg/kg i.v. + L-anserine 100 mg/kg s.c. every day, third and seventh days, versus CY alone control group): at least two times higher than the control group | spontaneous proliferation ability of bone marrow cells ([1]; CY 300 mg/kg i.v. + L-anserine 100 mg/kg s.c. every day, third to seventh days, versus CY alone control group): significantly higher than that of the control group | IL-3 productivity of the spleen cells ([2]; fifth and seventh days): 1.5 times higher than the control group | IL-3 productivity of the spleen cells ([2]; third to seventh days, versus CY alone control group): higher than the control group | CFU-s activity [6]: significantly higher | number of leukocytes ([3]; CY 300 mg/kg i.v. + L-anserine 100 mg/kg s.c. every day, eighth and ninth days): ~1.5 times higher than that of the control | number of leukocytes ([3]; CY 300 mg/kg i.v. + L-anserine 100 mg/kg s.c. every day, seventh to ninth days, versus CY alone control group): higher than that of the control group | decrease of content of hemoglobin [4, 9]: inhibited | decrease of the number of erythrocytes [4, 9]: inhibited | recovery of the concentration of hemoglobin [7]: promoted | recovery of the number of erythrocytes [7]: promoted | colony stimulating activity (CSA) in serum ([5]; CY 300 mg/kg i.v. + L-anserine 100 mg/kg s.c. every day, third day): 1.5 times higher than the control group | colony stimulating activity (CSA) in serum ([5]; CY 300 mg/kg i.v. + L-anserine 100 mg/kg s.c. every day, third to seventh days, versus CY alone control): higher than that of the control

Reference: patent EP0710485A1, “use of anserine in the manufacture of a medicament for stimulating hematopoiesis” (SUNTORY LIMITED, priority 1994, dated 1996)
